The values below come from patent publication US9060991B2, “Use of GLP-1 analogues for the treatment of disorders associated with dysfunctional synaptic transmission” (Innovation Ulster Limited, priority 2007, dated 2015).

Holding throughout (assay type): in vivo, Male Wistar rats
For experiment [1], the system named is long-term potentiation of synaptic transmission (EPSP slope, CA1 region of hippocampus). Put plainly: LTP in hippocampal CA1 after icv GLP-1 peptides, weak HFS protocol. Particulars: 15 nmol in 5 μl icv, LTP induced 30 min post-injection (time not given for FIG. 3A). The source says: (§1) Male Wistar rats weighing 220-280 g were anaesthetised with urethane (ethyl carbamate, 1.8 g/kg, intraperitoneal, (i.p.)) for the duration of all experiments. The animals had been obtained from Harlan, United Kingdom (UK). A cannula (22 gauge, 0.7 mm outer diameter, 11 mm in length, Bilaney, Kent, UK) was implanted (1.5 mm anterior to bregma, 0.5 mm lateral to the midline and 3.55 mm ventral) into the left hemisphere for intracerebroventricular (icv) injections. Electrodes (tungsten with Teflon® coating, Bilaney, Kent, UK) were implanted unilaterally 3.4 mm posterior and 2.5 mm lateral to the midline, and the stimulating electrode 4.2 mm posterior to bregma and 3.8 mm lateral to the midline. […] Recordings of EPSPs were made from the stratum radiatum in the CA1 region of the right hippocampal hemisphere in response to stimulation of the Schaffer collateral/commissural pathway. Field EPSPs were recorded on a computerised stimulating and recording unit (PowerLab, ADI instruments, UK) in which the trigger threshold was adjustable. The triggered unit activated a constant current stimulus isolation unit (Neurolog, UK). The data acquisition system was triggered simultaneously to record all events. Sampling speed was at 20 kHz recording of EPSPs.
(§2) The ‘strong’ high frequency stimulation (HFS) protocol for inducing long-term potentiation (LTP) consisted of 3 trains of 200 stimuli, inter-stimulus interval 5 ms (200 Hz), inter-train interval 2 sec. […] The ‘weak’ HFS protocol for inducing LTP consisted of 10 trains of 10 stimuli, inter-stimulus interval 5 ms (200 Hz). The strong HFS was used to test the effects of peptides that impair LTP (beta-amyloid), and the weak HFS was used to test peptides that facilitate LTP. In this form of LTP, the control group is not potentiated at a maximal rate, and LTP can decay slowly over time. Stimulation intensity was 70% of the maximum EPSP. LTP was measured as % of baseline EPSP slope recorded over a 30 min period prior to drug injection and 60 min prior to application of HFS. Baseline was recorded for 30 min and averaged. This value was taken as 100% of the EPSP slope and all recoded values were normalised to this baseline value. All experiments were licensed according to UK Home Office regulations, and the “Principles of laboratory animal care” (NIH publication No. 86-23, revised 1985) were followed.
Beta-amyoid (25-35) and other peptides used in this study were synthesised on an Applied Biosystems automated peptides synthesiser (Model 432A) using standard solid-phase Fmoc protocols. Peptides were judged pure by reversed phase HPLC on a waters Millenium 2010 chromatography system, and peptides were subsequently characterised using matrix-assisted laser desorption/ionisation time of flight (MALDI-TOF) mass spectrometry as described previously (Gengler et al., 2006; Hölscher et al., 2007). Peptides were stored in dry form and dissolved in double distilled water before the experiments. 5 μl of peptides solution was injected icv.
(§3) Each group consisted of 6 animals. Data were analysed using a repeated measures two-way ANOVA, or a repeated measures three level two-way ANOVA with post-hoc tests to discriminate between groups (PRISM, GraphPad software Inc; USA). […]
Male Wistar rats were icv injected with either vehicle (Control,) or 15 nmol Val(8)GLP-1 (♦). LTP was induced 30 min post-injection using the HFS (weak protocol), and the change in EPSP assessed and graphed to represent the change in LTP (FIG. 3B). […]

Experiment [2] has the same test system. Put plainly: Val(8)GLP-1 against beta-amyloid(25-35)-induced impairment of LTP. Particulars: for impairing effect of beta-amyloid on LTP: LTP induced 15 min post-βA injection.
Source text: as §1, §2
Beta-amyoid (25-35) and other peptides used in this study were synthesised on an Applied Biosystems automated peptides synthesiser (Model 432A) using standard solid-phase Fmoc protocols. […]
as §3

For experiment [3] the test system is unchanged. Put plainly: LTP in hippocampal CA1 after icv beta-amyloid(25-35), strong HFS protocol. Particulars: LTP induced 15 min post-injection, control = scrambled peptide. The source says:
Male Wistar rats weighing 220-280 g were anaesthetised with urethane (ethyl carbamate, 1.8 g/kg, intraperitoneal, (i.p.)) for the duration of all experiments. The animals had been obtained from Harlan, United Kingdom (UK). A cannula (22 gauge, 0.7 mm outer diameter, 11 mm in length, Bilaney, Kent, UK) was implanted (1.5 mm anterior to bregma, 0.5 mm lateral to the midline and 3.55 mm ventral) into the left hemisphere for intracerebroventricular (icv) injections. Electrodes (tungsten with Teflon® coating, Bilaney, Kent, UK) were implanted unilaterally 3.4 mm posterior and 2.5 mm lateral to the midline, and the stimulating electrode 4.2 mm posterior to bregma and 3.8 mm lateral to the midline. […] Field EPSPs were recorded on a computerised stimulating and recording unit (PowerLab, ADI instruments, UK) in which the trigger threshold was adjustable. […]
The ‘strong’ high frequency stimulation (HFS) protocol for inducing long-term potentiation (LTP) consisted of 3 trains of 200 stimuli, inter-stimulus interval 5 ms (200 Hz), inter-train interval 2 sec. […] LTP was measured as % of baseline EPSP slope recorded over a 30 min period prior to drug injection and 60 min prior to application of HFS. Baseline was recorded for 30 min and averaged. […]
LTP was induced 15 min post-injection using the HFS (strong protocol), and the change in EPSP assessed and graphed to represent the change in LTP (FIG. 2). […]

Where no end group is shown, it is not given here.

Regarding “Asp(7)GLP-1: analogue of human GLP-1 with Asp at position 7, SEQ ID NO: 3 (DAEGTFTSDVSSYLEGQAAKEFIAWLVKGR; Synthetic peptide analogue derived from human GLP-1)”, in experiment [1], the “effect on LTP (change in EPSP) versus control” value is recorded as “enhanced long-term potentiation (LTP) compared with control”. On to “GLP-1(7-36)amide: the natural hormone GLP-1(7-36)amide (HAEGTFTSDVSSYLEGQAAKEFIAWLVKGR-NH2; listed as Homo sapiens) [reference compound]”, for which the “effect on LTP (change in EPSP) versus control” value in experiment [1] was “difference between the GLP-1(7-36)amide group and control”. As to GLP-1(9-36)amide [reference compound], in experiment [1], the “effect on LTP (change in EPSP) versus control” value was “no difference between the GLP-1(9-36)amide group and the control group”. Still for that read-out and setting: under “Pro(9)GLP-1: analogue of human GLP-1 with Pro at position 9, SEQ ID NO: 5 (HAPGTFTSDVSSYLEGQAAKEFIAWLVKGR; Synthetic peptide analogue derived from human GLP-1)” stands “enhanced long-term potentiation (LTP) compared with control”. For “Val(8)GLP-1: analogue of human GLP-1 with Val at position 8, SEQ ID NO: 4”, the “impairing effect of beta-amyloid on LTP” value in experiment [2] (Val(8)GLP-1 15 nmol icv 15 min before beta-amyloid(25-35) 100 nmol icv) was “not significantly affected, but a trend became visible”; in experiment [2] (Val(8)GLP-1 15 nmol icv 30 min before beta-amyloid(25-35) 100 nmol icv), “completely reversed”; in experiment [2] (Val(8)GLP-1 15 nmol icv simultaneously with beta-amyloid(25-35) 100 nmol icv), “not affected”. Also, in experiment [1], the “effect on LTP (change in EPSP) versus control” value was “can enhance the induction of LTP”. As for “βA(25-35): beta-amyloid fragment 25-35, peptide that impairs LTP (GSNKGAIIGLM; Amyloid-beta protein 42; UniProt P05067 696-706, looked up, fragment)”, the “effect on LTP (change in EPSP) versus vehicle control” value in experiment [2] (beta-amyloid(25-35) alone, 100 nmol icv, LTP induced 15 min post-injection, FIG. 4A-4C experiments) was “difference between the beta-amyloid(25-35) group and control”. For the same substance, the “effect on LTP (change in EPSP) versus control” value is “difference between the 10 nmol group and control” in experiment [3] (10 nmol icv); “difference between the 100 nmol group and control” in experiment [3] (100 nmol icv).
